The text below walks through data of ChEMBL document CHEMBL1134942, “Synthesis and structure--activity relationship of novel aminotetralin derivatives with high micro selective opioid affinity” (Bioorg Med Chem Lett, 2002).

The target in assay [1] is Kappa-type opioid receptor (Homo sapiens, UniProt P41145). The assay can be described thus: Binding affinity for Opioid receptor kappa 1 was determined.
Another assay addresses Mu-type opioid receptor (Homo sapiens, UniProt P35372). The assay can be described thus: Binding affinity for Opioid receptor mu 1.
The species entered for assay [2] is Mus musculus. The assay can be described thus: Antinociceptive activity in mice was determined using PBQ assay. Format: functional.
The target in assay [3] is Delta-type opioid receptor (Homo sapiens, UniProt P41143). The assay can be described thus: Binding affinity for Opioid receptor delta 1 was determined.
Chain of Delta-type opioid receptor (P41143 whole entry): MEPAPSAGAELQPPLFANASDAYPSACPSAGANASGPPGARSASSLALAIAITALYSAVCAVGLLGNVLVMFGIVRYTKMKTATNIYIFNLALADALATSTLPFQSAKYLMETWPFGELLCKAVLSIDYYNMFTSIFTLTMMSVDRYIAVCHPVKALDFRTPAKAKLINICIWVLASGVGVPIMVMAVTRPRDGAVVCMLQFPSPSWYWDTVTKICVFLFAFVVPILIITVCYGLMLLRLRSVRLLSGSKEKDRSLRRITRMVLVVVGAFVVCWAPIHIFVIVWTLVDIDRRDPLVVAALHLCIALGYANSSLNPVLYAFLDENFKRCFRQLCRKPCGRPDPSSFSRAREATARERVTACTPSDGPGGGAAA
For assay [4], the species on record is Mus musculus. The assay can be described thus: Antinociceptive activity in mice was determined using Tail flick method. Format: functional. (Thermal pain tests record how soon the animal reacts.)

The term Ki denotes a measure of affinity in units of concentration, obtained from inhibition or displacement. A higher Ki goes with lower affinity. For orientation: ED50 means the dose at which the effect has come halfway, by size or by number of responders.

Chain of Mu-type opioid receptor (P35372 whole entry): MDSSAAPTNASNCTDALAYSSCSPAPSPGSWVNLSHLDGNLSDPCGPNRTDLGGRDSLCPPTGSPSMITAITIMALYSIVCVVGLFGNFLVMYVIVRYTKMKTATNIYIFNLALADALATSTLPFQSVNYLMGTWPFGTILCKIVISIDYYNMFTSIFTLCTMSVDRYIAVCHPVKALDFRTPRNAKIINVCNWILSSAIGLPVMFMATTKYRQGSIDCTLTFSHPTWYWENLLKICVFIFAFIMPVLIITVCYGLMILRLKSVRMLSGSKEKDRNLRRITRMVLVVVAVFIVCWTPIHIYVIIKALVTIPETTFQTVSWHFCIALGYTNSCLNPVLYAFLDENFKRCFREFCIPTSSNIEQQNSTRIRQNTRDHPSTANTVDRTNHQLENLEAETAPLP
Chain of Kappa-type opioid receptor (P41145 whole entry): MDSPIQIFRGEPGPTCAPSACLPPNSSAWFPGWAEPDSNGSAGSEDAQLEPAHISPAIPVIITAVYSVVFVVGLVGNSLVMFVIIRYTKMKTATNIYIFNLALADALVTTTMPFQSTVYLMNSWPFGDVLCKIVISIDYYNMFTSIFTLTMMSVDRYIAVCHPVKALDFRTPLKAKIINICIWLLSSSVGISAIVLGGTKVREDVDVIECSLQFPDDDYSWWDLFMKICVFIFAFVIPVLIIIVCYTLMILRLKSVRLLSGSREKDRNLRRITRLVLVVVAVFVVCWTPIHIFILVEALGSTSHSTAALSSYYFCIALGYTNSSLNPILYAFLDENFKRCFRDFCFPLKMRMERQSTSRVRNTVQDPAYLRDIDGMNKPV

Turning to `C[C@@]12CCCCS[C@@H](Cc3ccc(O)cc31)C2N` (stereo partly specified), the Ki in assay [1] was 0.0434 µM; on Mu-type opioid receptor, 0.00079 µM; in assay [3], 0.42 µM. In the assay listed under Mus musculus [2], the 50% effective dose (ED50) was 0.33 µmol/kg.

Consider `CN1CC[C@]23c4c5ccc(O)c4O[C@H]2[C@@H](O)C=C[C@H]3[C@H]1C5` [MORPHINE], for which the ED50 in the assay filed under Mus musculus [4] came to 1.2 µmol/kg; in the assay filed under Mus musculus [2] it was 1.6 µmol/kg.

In the case of `CC1(C)c2cc(O)ccc2C[C@@H](S)[C@H]1N`, the affinity on Mu-type opioid receptor, expressed as Ki, was 0.163 µM.

With `CC1(C)c2cc(O)ccc2C[C@@H](O)[C@H]1N`, the affinity on Mu-type opioid receptor, expressed as Ki, was 0.204 µM.

In the case of `CC1(C)c2cc(O)ccc2C[C@@H](S(C)(=O)=O)[C@H]1N`, the affinity at Mu-type opioid receptor, expressed as Ki, was 1.15 µM.

Consider `CC[C@@H]1Cc2ccc(O)cc2C(C)(C)[C@@H]1N`, for which the values for the inhibitory constant (Ki) (in assay [1]; at Mu-type opioid receptor; in assay [3]) were 0.345 µM, 0.021 µM and 4.51 µM, respectively. Also, the 50% effective dose (ED50) in the assay filed under Mus musculus [4] was found to be 10.4 µmol/kg; in the assay listed under Mus musculus [2] it was 4.8 µmol/kg.

In the case of `CS[C@@H]1Cc2ccc(O)cc2C(C)(C)[C@@H]1N`, the inhibitory constant (Ki) in assay [1] was found to be 0.066 µM; in assay [3] it was 0.349 µM. For the same molecule, the ED50 in the assay filed under Mus musculus [4] came to 0.58 µmol/kg; in the assay filed under Mus musculus [2] it was 0.14 µmol/kg.

`CO[C@@H]1Cc2ccc(O)cc2C(C)(C)[C@@H]1N`: the inhibitory constant (Ki) was found to be 0.184 µM in assay [1], 0.0018 µM on Mu-type opioid receptor and 5.22 µM in assay [3]. In addition, the median effective dose (ED50) in the assay listed under Mus musculus [4] was found to be 16 µmol/kg; in the assay filed under Mus musculus [2], 1.1 µmol/kg.

On Mu-type opioid receptor, `CC[C@H]1Cc2ccc(O)cc2C(C)(C)[C@@H]1N` displayed a Ki of 0.135 µM.

At Mu-type opioid receptor, `C[S+]([O-])[C@@H]1Cc2ccc(O)cc2C(C)(C)[C@@H]1N` (stereo in doubt; 18B) came in with a Ki of 2 µM.

As for `C[S+]([O-])[C@@H]1Cc2ccc(O)cc2C(C)(C)[C@@H]1N` (stereo in doubt; 18A), on Mu-type opioid receptor, the affinity corresponds to a Ki of 1.06 µM.
